One molecule from patent US6013642A, “Use of estrone derivatives as steroid sulphatase inhibitors” (priority 1994, dated 2000) can be followed below.

In one assay the target is T1, U937 DHEAS sulphatase (Homo sapiens, UniProt P08842).
T1 construct: DHEAS sulphatase activity in U937 cell extracts; endogenous in cells; host or cells: U937 cells (sonicate in Tris buffered saline with 1% Triton X-100)
T1 sequence (P08842 22-583): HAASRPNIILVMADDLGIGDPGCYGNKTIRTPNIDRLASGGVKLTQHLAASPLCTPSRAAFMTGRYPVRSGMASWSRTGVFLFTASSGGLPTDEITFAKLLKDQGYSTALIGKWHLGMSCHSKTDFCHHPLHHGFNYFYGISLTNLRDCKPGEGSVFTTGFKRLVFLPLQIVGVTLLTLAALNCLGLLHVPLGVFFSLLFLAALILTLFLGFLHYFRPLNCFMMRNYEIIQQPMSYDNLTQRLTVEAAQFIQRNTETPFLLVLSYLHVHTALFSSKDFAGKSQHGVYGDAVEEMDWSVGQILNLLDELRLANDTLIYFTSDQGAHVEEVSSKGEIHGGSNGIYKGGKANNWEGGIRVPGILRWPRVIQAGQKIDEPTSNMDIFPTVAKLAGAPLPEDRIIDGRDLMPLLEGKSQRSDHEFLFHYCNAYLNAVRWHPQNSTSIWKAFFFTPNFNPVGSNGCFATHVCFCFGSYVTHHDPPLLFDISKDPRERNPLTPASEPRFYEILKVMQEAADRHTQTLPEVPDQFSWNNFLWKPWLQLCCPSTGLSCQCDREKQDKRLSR
Nature of the assay: DHEAS sulphatase activity in U937 cell extracts. The assay is classed as biochemical. The procedure: c) DHEAS sulphatase activity in U937 cell extracts.
The inhibitors Ct 2211 and Ct 2251 were dissolved in 100% ethanol and 100% dimethyl sulphoxide (DMSO) respectively at stock concentrations of 20 mM. These were titrated in their respective solvents over a range of assay concentrations. The tritiated substrates DHEA sulphate and estrone sulphate were obtained from New England Nuclear and diluted in ethanol to give a final concentration of 70 nM for use in the assay. U937 cells were grown in RPLI containing 10% foetal bovine serum and harvested at a cell concentration of 1×10^6 /ml. These were washed in serum free medium stored at -70° C. at 1×10^8 /ml in Tris buffered saline pH7.4+1% triton X-100 and sonicated prior to use in the assay.
50 μl of substrate in ethanol was added to each assay tube and the solvent removed in a rotary vacuum evaporator. […] After centrifugation scintillation fluid was added to extract the desulphated substrate and the CPM present in an aliquot of the organic phase were counted using a beta counter.
In order to obtain total counts 10 μl of the aqueous fraction of the duplicate tubes containing only hot DHEA-s were counted after addition of scintillant and the total cpm calculated as follows: [formula] where vo +inhibitor-rate in the presence of inhibitor and vo -inhibitor=rate in the absence of inhibitor.
IC50 determined as described previously.

For assay [1], the target named is T2, human placental microsomal DHEAS sulphatase (Homo sapiens, UniProt P08842).
T2 construct: Human placental microsomes prepared as described in; from tissue; host or cells: human placenta, microsomes (prepared as Santner et al 1984)
T2 sequence (P08842 22-583): T1 sequence (P08842 22-583)
Nature of the assay: Human placental microsomal steroid sulphatase assay. It is filed as biochemical. Here is the method:
a) Human placental microsomal steroid sulphatase
ENZYME: Human placental microsomes prepared as described in (Santner, S. J., et al (1984) J. Clin. Endocrinol. Metab. 59 29).
ASSAY: All assays were carried out in (at least) duplicate. The reaction mixture consisted of either PBS+250 mM sucrose (placental microsomes), containing 1 μmol/1 DHEAS [concentration chosen because approx. […]] with 0.05% (v/v) [^3 H] substrate and 0.05% (v/v) [^14 C] DHEA) in 0.5% (v/v DMSO. The reaction was initiated by addition of appropriately diluted) such that 10% substrate conversion occurred during the assay) enzyme and incubated for 30 min at 30° C. Reactions were stopped by addition of 1000 μl toluene to the reaction mixture, vortexed (2*40 sec on max setting of multitube vortexer), then allow to settle for 5 min. 500 μl top (solvent) layer removed to scintillation vial. add 10 ml scintillation fluid (Ultima Gold XR) then counted for radioactivity on a scintillation counter. As controls, enzyme was excluded from some reaction mixtures and 50% solvent and aqueous layers removed and counted for radioactivity in order to determine background (in solvent layer) and total (in aqueous layer) [^3 H]. [^14 C] DHEA is included to enable back correction to allow for product (DHEA) recovery (normally >98%). […]

In assay [2] the test system is mouse delayed type hypersensitivity model. Nature of the assay: Delayed type hypersensitivity (SRBC, footpad swelling) in the mouse. It is filed as in vivo. To be noted: FIG. 11, 24 h post challenge. The procedure:
2. Delayed Type Hypersensitivity (DTH)
On day 0, animals were injected intravenously with 10^6 washed SRBC in 0.1 ml saline. Four days later animals were challenged in the right hind footpad with 10^6 washed SRBC in 50 μl saline. Footpad thickness is measured prior to challenge, 24, 48 and 72 hours post challenge using calipers. Footpad swelling is determined as the difference in thickness prior and post challenge. The data are expressed as percentage change from the vehicle treated groups given sensitisation and challenge.
Animals were randomised into 10 groups (n=7-8) and steroids given on day 0 and 4.
Steroids were given on day 0 and 3 subcutaneously. Response at 24 h post challenge. Results given as mean±sem. $, *p<0.05 ANOVA.

The next assay has as its system carrageenan pleurisy. The assay is described as follows: Carrageenan pleurisy. It is filed as in vivo, Wistar Rats. The note with it: FIG. 14; CT2251 10 mg/kg p.o. at -24 h and -1 h; six hours. Here is the method:
Wistar Rats were anaesthetised and given intra-pleural injections of 0.5% carrageenan in saline at time 0. Six hours later the animals were killed and pleural cavity lavaged with 1 ml. citrated saline. Volume of fluid exudate and exudate cell concentration were measured. Animals were randomised to 5 treatment groups (n=6).

One may read the IC50 as the concentration that gives 50% inhibition. Lower therefore signals greater potency in that assay. Molecule `C[C@]12CC[C@@H]3c4ccc(OS(N)(=O)=O)cc4CC[C@H]3[C@@H]1CCC2=O` [CT 2251, Estrone 3-0-sulphamate] gave an IC50 at U937 DHEAS sulphatase of 40 nM. The “inhibition of U937 sulphatase with estrone sulphate as substrate” value at U937 DHEAS sulphatase (FIG. 3, estrone sulphate substrate) was “inhibit”. For the same molecule, the IC50 in assay [1] amounted to 5 nM. Also, in assay [2] (CT2251 0.1 and 10 mg/kg s.c.), the “foot swelling response, inhibitor on its own” value is “can markedly reduce the foot swelling response”. Besides, in assay [2] (CT2251 0.1 and 10 mg/kg with DHEAS 5 mg/kg s.c.), the “effect on DHEAS-mediated augmentation of foot swelling” value was “can effectively reverse the DHEAS-mediated augmentation”. For the same molecule, in the assay with carrageenan pleurisy, the “reduction of cell infiltrate” value stood at 28% and the “reduction of exudate volume” value came to 43%.
